Results from ChEMBL document CHEMBL3792365, “Dioxol and dihydrodioxin analogs of 2- and 3-phenylacetonitriles as potent anti-cancer agents with nanomolar activity against a variety of human cancer cells” (2016).

Legend:
Type in all cases: functional
[1] = Growth inhibition of human HCT15 cells at 10 uM after 48 hrs by sulforhodamine B assay; conditions: HCT-15, 48 h, values are per cent of control
NCI-H522 = test: Growth inhibition of human NCI-H522 cells at 10 uM after 48 hrs by sulforhodamine B assay; conditions: NCI-H522, 48 h, values are per cent of control
[2] = Growth inhibition of human RXF393 cells at 10 uM after 48 hrs by sulforhodamine B assay; conditions: RXF 393, 48 h, values are per cent of control
[3] = Growth inhibition of human SF539 cells at 10 uM after 48 hrs by sulforhodamine B assay; conditions: SF-539, 48 h, values are per cent of control
NCI-H322M = test: Growth inhibition of human NCI-H322M cells at 10 uM after 48 hrs by sulforhodamine B assay; conditions: values are per cent of control
[4] = Growth inhibition of human Hs 578T cells at 10 uM after 48 hrs by sulforhodamine B assay; conditions: values are per cent of control
SK-MEL-28 = test: Growth inhibition of human SK-MEL-28 cells at 10 uM after 48 hrs by sulforhodamine B assay; conditions: SK-MEL-28, 48 h, values are per cent of control
[5] = Growth inhibition of human UO31 cells at 10 uM after 48 hrs by sulforhodamine B assay; conditions: UO-31, 48 h, values are per cent of control
SN12C = test: Growth inhibition of human SN12C cells at 10 uM after 48 hrs by sulforhodamine B assay; conditions: values are per cent of control
[6] = Growth inhibition of human LOXIMVI cells at 10 uM after 48 hrs by sulforhodamine B assay; conditions: LOX IMVI, values are per cent of control
[7] = Growth inhibition of human SNB19 cells at 10 uM after 48 hrs by sulforhodamine B assay; conditions: SNB-19, 48 h, values are per cent of control
T47D = test: Growth inhibition of human T47D cells at 10 uM after 48 hrs by sulforhodamine B assay; conditions: values are per cent of control
MDA-MB-468 = test: Growth inhibition of human MDA-MB-468 cells at 10 uM after 48 hrs by sulforhodamine B assay; conditions: MDA-MB-468, 48 h, values are per cent of control
[8] = Growth inhibition of human COLO205 cells at 10 uM after 48 hrs by sulforhodamine B assay; conditions: COLO 205, 48 h, values are per cent of control
MDA-MB-435 = test: Growth inhibition of human MDA-MB-435 cells at 10 uM after 48 hrs by sulforhodamine B assay; conditions: MDA-MB-435, 48 h, values are per cent of control
M14 = test: Growth inhibition of human M14 cells at 10 uM after 48 hrs by sulforhodamine B assay; conditions: M14, 48 h, values are per cent of control
[9] = Growth inhibition of human IGROV1 cells at 10 uM after 48 hrs by sulforhodamine B assay; conditions: IGROV-1, 48 h, values are per cent of control
ACHN = test: Growth inhibition of human ACHN cells at 10 uM after 48 hrs by sulforhodamine B assay; conditions: values are per cent of control
A549 = test: Growth inhibition of human A549/ATCC cells at 10 uM after 48 hrs by sulforhodamine B assay; conditions: A549, 48 h, values are per cent of control
[10] = Growth inhibition of human OVCAR4 cells at 10 uM after 48 hrs by sulforhodamine B assay; conditions: OVCAR-4, 48 h, values are per cent of control
U-251 = test: Growth inhibition of human U251 cells at 10 uM after 48 hrs by sulforhodamine B assay; conditions: U-251, 48 h, values are per cent of control
[11] = Growth inhibition of human Caki1 cells at 10 uM after 48 hrs by sulforhodamine B assay; conditions: CAKI-1, 48 h, values are per cent of control
[12] = Growth inhibition of human SW620 cells at 10 uM after 48 hrs by sulforhodamine B assay; conditions: SW-620, 48 h, values are per cent of control
[13] = Growth inhibition of human SF268 cells at 10 uM after 48 hrs by sulforhodamine B assay; conditions: SF-268, 48 h, values are per cent of control
[14] = Growth inhibition of human NCI-ADR-RES cells at 10 uM after 48 hrs by sulforhodamine B assay; conditions: values are per cent of control
NCI-H460 = test: Growth inhibition of human NCI-H460 cells at 10 uM after 48 hrs by sulforhodamine B assay; conditions: NCI-H460, 48 h, values are per cent of control
[15] = Growth inhibition of human DU145 cells at 10 uM after 48 hrs by sulforhodamine B assay; conditions: DU-145, 48 h, values are per cent of control
KM12 = test: Growth inhibition of human KM12 cells at 10 uM after 48 hrs by sulforhodamine B assay; conditions: KM12, 48 h, values are per cent of control
[16] = Growth inhibition of human OVCAR5 cells at 10 uM after 48 hrs by sulforhodamine B assay; conditions: OVCAR-5, 48 h, values are per cent of control
K562 = test: Growth inhibition of human K562 cells at 10 uM after 48 hrs by sulforhodamine B assay; conditions: K562, 48 h, values are per cent of control
[17] = Growth inhibition of human HOP62 cells at 10 uM after 48 hrs by sulforhodamine B assay; conditions: HOP-62, 48 h, values are per cent of control
[18] = Growth inhibition of human HCC2998 cells at 10 uM after 48 hrs by sulforhodamine B assay; conditions: HCC 2998, 48 h, values are per cent of control
[19] = Growth inhibition of human OVCAR8 cells at 10 uM after 48 hrs by sulforhodamine B assay; conditions: OVCAR-8, 48 h, values are per cent of control
MDA-MB-231 = test: Growth inhibition of human MDA-MB-231 cells at 10 uM after 48 hrs by sulforhodamine B assay; conditions: MDA-MB-231, 48 h, values are per cent of control
[20] = Growth inhibition of human HCT116 cells at 10 uM after 48 hrs by sulforhodamine B assay; conditions: HCT-116, 48 h, values are per cent of control
SK-MEL-5 = test: Growth inhibition of human SK-MEL-5 cells at 10 uM after 48 hrs by sulforhodamine B assay; conditions: SK-MEL-5, 48 h, values are per cent of control
[21] = Growth inhibition of human SNB75 cells at 10 uM after 48 hrs by sulforhodamine B assay; conditions: SNB-75, 48 h, values are per cent of control
A498 = test: Growth inhibition of human A498 cells at 10 uM after 48 hrs by sulforhodamine B assay; conditions: A498, 48 h, values are per cent of control
[22] = Growth inhibition of human BT549 cells at 10 uM after 48 hrs by sulforhodamine B assay; conditions: BT-549, 48 h, values are per cent of control
[23] = Growth inhibition of human UACC62 cells at 10 uM after 48 hrs by sulforhodamine B assay; conditions: UACC-62, 48 h, values are per cent of control

SMILES	growth, % of control at 10 µM [1]	growth, % of control at 10 µM (NCI-H522)	growth, % of control at 10 µM [2]	growth, % of control at 10 µM [3]	growth, % of control at 10 µM (NCI-H322M)	growth, % of control at 10 µM [4]	growth, % of control at 10 µM (SK-MEL-28)	growth, % of control at 10 µM [5]	growth, % of control at 10 µM (SN12C)	growth, % of control at 10 µM [6]	growth, % of control at 10 µM [7]	growth, % of control at 10 µM (T47D)	growth, % of control at 10 µM (MDA-MB-468)	growth, % of control at 10 µM [8]	growth, % of control at 10 µM (MDA-MB-435)	growth, % of control at 10 µM (M14)	growth, % of control at 10 µM [9]	growth, % of control at 10 µM (ACHN)	growth, % of control at 10 µM (A549)	growth, % of control at 10 µM [10]	further results
COc1ccc(/C(C#N)=C/c2ccc3c(c2)OCCO3)cc1	43.4%	39.3%	77.3%	63.7%	77.5%	79.6%	75.3%	73.2%	72.1%	56.7%	83.3%	40.4%	14.8%	50.5%	-29.8%	38.5%	71.3%	87.7%	41.5%	94.6%	growth, % of control at 10 µM (U-251): 36.3%; growth, % of control at 10 µM [11]: 64.2%; growth, % of control at 10 µM [12]: 28.8%; growth, % of control at 10 µM [13]: 71.9%; growth, % of control at 10 µM [14]: 34.4%; growth, % of control at 10 µM (NCI-H460): 33.4%; growth, % of control at 10 µM [15]: 84.7%; growth, % of control at 10 µM (KM12): 27.8%; growth, % of control at 10 µM [16]: 88%; growth, % of control at 10 µM (K562): 18.7%; growth, % of control at 10 µM [17]: 68.3%; growth, % of control at 10 µM [18]: 55.7%; growth, % of control at 10 µM [19]: 77.1%; growth, % of control at 10 µM (MDA-MB-231): 68.4%; growth, % of control at 10 µM [20]: 38.8%; growth, % of control at 10 µM (SK-MEL-5): 45%; growth, % of control at 10 µM [21]: 61.1%; growth, % of control at 10 µM (A498): 70.9%; growth, % of control at 10 µM [22]: 56.6%; growth, % of control at 10 µM [23]: 53.7%
N#C/C(=C\c1cccc2ccccc12)c1ccc2c(c1)OCO2	40.6%	47.6%	64.3%	67.9%	90.5%	65.5%	64.6%	80.3%	75.9%	65.2%	82.1%	67.9%	25.9%	56%	-28.5%	37.9%	68.8%	79.3%	55.9%	68.9%	growth, % of control at 10 µM (U-251): 47.3%; growth, % of control at 10 µM [11]: 61.2%; growth, % of control at 10 µM [12]: 35.2%; growth, % of control at 10 µM [13]: 71%; growth, % of control at 10 µM [14]: 36.5%; growth, % of control at 10 µM (NCI-H460): 77.8%; growth, % of control at 10 µM [15]: 77.7%; growth, % of control at 10 µM (KM12): 39.2%; growth, % of control at 10 µM [16]: 98.2%; growth, % of control at 10 µM (K562): 21.7%; growth, % of control at 10 µM [17]: 75.9%; growth, % of control at 10 µM [18]: 68.8%; growth, % of control at 10 µM [19]: 99%; growth, % of control at 10 µM (MDA-MB-231): 48.3%; growth, % of control at 10 µM [20]: 32.7%; growth, % of control at 10 µM (SK-MEL-5): 66.2%; growth, % of control at 10 µM [21]: 61.6%; growth, % of control at 10 µM (A498): 35.7%; growth, % of control at 10 µM [22]: 51.8%; growth, % of control at 10 µM [23]: 44.7%
N#C/C(=C\c1ccc2ccccc2n1)c1ccc2c(c1)OCO2	79.7%	58.8%	80%	69.6%	66.6%	34.8%	88.6%	72.8%	73%	59.5%	34.7%	69.4%	77.8%	104%	48.3%	90.3%	55.1%	41.4%	56.8%	45%	growth, % of control at 10 µM (U-251): 26.7%; growth, % of control at 10 µM [11]: 76%; growth, % of control at 10 µM [12]: 89.9%; growth, % of control at 10 µM [13]: 62.5%; growth, % of control at 10 µM [14]: 64.3%; growth, % of control at 10 µM (NCI-H460): 24.7%; growth, % of control at 10 µM [15]: 81.3%; growth, % of control at 10 µM (KM12): 86.8%; growth, % of control at 10 µM [16]: 81.1%; growth, % of control at 10 µM (K562): 70.3%; growth, % of control at 10 µM [17]: 69.7%; growth, % of control at 10 µM [18]: 95.1%; growth, % of control at 10 µM [19]: 60.8%; growth, % of control at 10 µM (MDA-MB-231): 50.2%; growth, % of control at 10 µM [20]: 20.5%; growth, % of control at 10 µM (SK-MEL-5): 95.3%; growth, % of control at 10 µM [21]: 5.4%; growth, % of control at 10 µM (A498): 54.1%; growth, % of control at 10 µM [22]: 86.1%; growth, % of control at 10 µM [23]: 86.8%
